# Test results published in patent US20260232699A1, “COMPOSITIONS OF A CANNABINOID AND A KINASE INHIBITOR FOR THE TREATMENT OF CANCER” (SINOVEDA CANADA INC., priority 2023, published 2026).
# pIC50: −log10 of the molar value. Read-outs that look alike come from different tables or passages of the source.
# Tests used:
# HepG2 cells = test: HepG2 cell proliferation assay (XTT); assay type: cell-based, human; details: Homo sapiens
# Procedure: HepG2 cells were obtained from the American Type Culture Collection (ATCC). Normal hepatocyte pool of cells was acquired from Xenotech. Cryopreserved cells in DMEM containing 5% DMSO were thawed and diluted 10-fold in phenol red free DMEM media containing 10% fetal bovine serum, 100 μg/ml penicillin/streptomycin, supplemented with Glutamax™ and sodium pyruvate. Subsequently, cells were centrifuged at 20 g for 10 minutes. The cells were resuspended in the same media with added Revitacell® to a concentration of […]. Ninety-six well cell culture treated flat bottom plates were seeded with 7.5×10^3 cells in 100 μl and incubated at 37° C., 7.5% CO2, >95% relative humidity for 18 hours to allow cellular adhesion after which media was replaced with like media (DMEM, IMDM, Williams E) containing 1 to 20% FBS and various test compounds (10 μg/ml to 100 ng/ml). After 48 hours (2 doublings of cells), sodium; 2-(2-methoxy-4-nitro-5-sulfonatophenyl)-3-(2-methoxy-4-nitro-5-sulfophenyl)-N-phenyltetrazol-3-ium-5-carboximidate (XTT) (300 μg/ml) was added, and cells incubated for 2 hours. Formazan production was measured at 450 nm on a Varioskan lux spectrophotometer. Non-specific absorption was measured at 660 nm and subtracted from the reference measurement at 450 nm. Experiments were performed in triplicates (n=3). […]
# The objectives of this example are to, first, establish the procedure of a two-component interaction study; and second, establish a method of analysis to identify potential interactions among the two components/compounds. […] Following 48 hours of incubation, the IC50 values of various mixtures were obtained and compared with the pure compound's IC50 values and predicted/calculated IC50 values for the various mixtures. […]
# Samples from the serial dilutions were analyzed by LC-MS/MS to orthogonally confirm concentrations. […]
# To assess potential interactions, the IC50 values for individual cannabinoids in the control lanes were calculated and used to predict and IC50 value for the summation of their individual components.
# [1] = Clinical study, patients; cited from earlier work
# [2] = tested on: pool of normal hepatocytes (HC3_23); test: Normal hepatocyte toxicity, Calcein-AM; assay type: cell-based; details: Homo sapiens, 48-hour incubation, William's E media
# Procedure: To evaluate the safety margin of the compounds prior to clinical trials, the toxicity of the compounds toward a pool of normal hepatocytes was investigated in-house using a hepatocyte pool obtained from Xenotech (HC3_23). Cells were thawed and plated in 96 well, black walled, gamma-irradiated plates (100 μl) after reconstitution in William's E media with Gibco hepatocellular maintenance supplement. Following an 18-hour recovery period, the media was exchanged with the same media containing 9 serial dilutions of the test compound mixtures (8 to 2000 μg/ml). Experiments were performed in triplicate. Following a 48-hour incubation period, Calcein-AM was added to provide a final concentration of 7 ng/ml to each well and allowed to react for 60 minutes before readings were acquired (excitation 494 nm, emission 517 nm). Data were fit to sigmoidal curves using four-point logistic curve fitting software and the 50% inflection points used for IC50 values.
smiles,measurement,setting,value
CNC(=O)c1cc(Oc2ccc(NC(=O)Nc3ccc(Cl)c(C(F)(F)F)c3)cc2)ccn1 [Sorafenib],pIC50,"HepG2 cells; IMDM media with 20% FBS and 1% ethanol, read-out: predetermined IC50 concentrations",4.92
same,IC50,"HepG2 cells; XTT, DMEM media with 20% FBS, 48 hour treatment, read-out: IC50 HepG2",9.8 µg/mL
same,Tmax,[1],2 to 9.5 h
same,Total body clearance,[1],1.83 mL/min/kg
same,Volume of distribution,[1],2.66 L/kg
same,IC50,[2],70.1 µg/mL
